These results are taken from ChEMBL document CHEMBL1137953, “A novel approach to the synthesis of cytotoxic C2-C3 unsaturated pyrrolo[2,1-c]benzodiazepines (PBDs) with conjugated acrylyl C2-substituents” (2004).

What all share (format): functional
A short description of test [1]: Compound was evaluated for growth inhibition of 60 cell lines in NCI screen.
Test [2] can be described thus: Lethal concentration of compound was evaluated against 60 cell lines in NCI screen.
The nature of test [3]: Compound was evaluated for total growth inhibition of 60 cell lines in NCI screen.
A further test has as its system PC-3. Nature of the test: Compound was evaluated for growth inhibition of prostate PC-3 cell line in NCI 60-cell line screen. Conditions: Homo sapiens.
The subject of another test is MCF7. Nature of the test: Compound was evaluated for growth inhibition of breast MCF-7 cell line in NCI 60-cell line screen. Conditions: Homo sapiens.
For the next test, the system named is UACC-257. Nature of the test: Compound was evaluated for growth inhibition of melanoma UACC-257 cell line in NCI 60-cell line screen. The following applies: Homo sapiens.
A further test has as its system HOP-92. Nature of the test: Compound was evaluated for growth inhibition of non-small cell lung HOP-92 cell line in NCI 60-cell line screen. Conditions: Homo sapiens.
Another test has as its system HCT-116. Kind of test: Compound was evaluated for growth inhibition of colon HCT116 cell line in NCI 60-cell line screen. Conditions: Homo sapiens.
Another test deals with CCRF-CEM. Kind of test: Compound was evaluated for growth inhibition of leukemia CCRF-CEM cell line in NCI 60-cell line screen. Conditions: Homo sapiens.
A further test concerns U-251. Nature of the test: Compound was evaluated for growth inhibition of central nervous system U251 cell line in NCI 60-cell line screen. The following applies: Homo sapiens.
The subject of another test is RXF 393. Kind of test: Compound was evaluated for growth inhibition of renal RXF-393 cell line in NCI 60-cell line screen. Conditions: Homo sapiens.
In a further test the test system is OVCAR-5. Kind of test: Compound was evaluated for growth inhibition of ovarian OVCAR-5 cell line in NCI 60-cell line screen. Conditions: Homo sapiens.

For orientation: GI50 means the concentration giving 50% growth inhibition. Read a low GI50 as more potent growth inhibition. Broadly, the TGI is the concentration giving total growth inhibition. The low end stands for greater sensitivity of the cells, the high end for lower sensitivity of the cells. In test [1], `COC(=O)/C=C/C1=CN2C(=O)c3cc(OC)c(OC)cc3N=C[C@@H]2C1` had a GI50 of 13 nM. In test [2], the LC50 (50% lethal concentration) came to 55000 nM. In test [3], this molecule had a TGI of 1320 nM.

`COc1cc2c(cc1OC)C(=O)N1C=C(/C=C/C(N)=O)C[C@H]1C=N2`: it took 53 nM to inhibit growth in test [1] by half (GI50). Further, the LC50 (50% lethal concentration) in test [2] amounted to 69200 nM. Total growth inhibition in test [3] (TGI) required 3720 nM.

Take `Cc1ccc2c(c1O)NC(O)C1CC(/C=C/C(N)=O)=CN1C2=O` (stereo not given) [ANTHRAMYCIN]: the 50% growth inhibitory concentration (GI50) amounted to 29 nM in test [1]; 20 nM with PC-3; 39.8 nM with MCF7; 63.1 nM in the test on UACC-257; 20 nM in the test with HOP-92; 39.8 nM with HCT-116. In addition, the GI50 in the test on CCRF-CEM came out at 20 nM; in the test with U-251, 20 nM; in the test with RXF 393, 31.6 nM; with OVCAR-5 it was 50.1 nM. The molecule also registered an LC50 (50% lethal concentration) in test [2] of 12700 nM. Further, in test [3], total growth inhibition (TGI) required 610 nM.

As to `COc1cc2c(cc1OC)C(=O)N1C=C(/C=C/C(=O)N(C)C)C[C@H]1C=N2`, the concentration for 50% growth inhibition (GI50) worked out at 12 nM in test [1]; 18.6 nM in the test with PC-3; 7.15 nM in the test on MCF7; 0.25 nM in the test on UACC-257; 2.34 nM in the test with HOP-92; 11.7 nM with HCT-116. In addition, the GI50 in the test on CCRF-CEM was determined as 0.6 nM; in the test with U-251 it was 3.33 nM; in the test on RXF 393, 1.65 nM; in the test on OVCAR-5 it was 3.21 nM. This molecule also had an LC50 (50% lethal concentration) in [2] of 650 nM. Moreover, in test [3], the total growth inhibition concentration (TGI) was found to be 96 nM.
